The subject of series [1] is Mus musculus. Kind of series: Toxicity in Mus musculus Swiss albino (mouse) assessed as changes in behavioral pattern at 500 to 2000 mg/kg, po measured after 14 days. Format: organism-based. Also on record: dose 500-2000 mg/kg, route oral. The conditions noted are these: in vivo, 336 h.
Series [2] relates to Mus musculus. Kind of series: Toxicity in Mus musculus Swiss albino (mouse) assessed as abnormal changes in eyes at 500 to 2000 mg/kg, po measured after 14 days. Format: organism-based. Details: dose 500-2000 mg/kg, route oral. The following applies: in vivo, 336 h.
The subject of series [3] is Rattus norvegicus. Kind of series: Anti-inflammatory activity in Rattus norvegicus Wistar (rat) assessed as inhibition of carrageenan-induced paw edema at 160 mg/kg, po administered 30 min prior to carrageenan challenge measured at 4 hr relative to control. The class given is functional.
Series [4] has as its system Mus musculus. The experiment in a line: Toxicity in Mus musculus Swiss albino (mouse) assessed as mortality at 500 to 2000 mg/kg, po measured after 14 days. The class given is organism-based. Also on record: dose 500-2000 mg/kg, route oral. The conditions noted are these: in vivo, 336 h.
The subject of series [5] is Mus musculus. Kind of series: Analgesic activity in Mus musculus Swiss albino (mouse) assessed as inhibition of acetic acid-induced writhing at 160 mg/kg, po administered 30 min prior challenge measured after 5 min of challenge for next 30 min relative to control. The class given is functional.
Series [6] deals with Mus musculus. Kind of series: Toxicity in Mus musculus Swiss albino (mouse) assessed as abnormal changes in fur at 500 to 2000 mg/kg, po measured after 14 days. The class given is organism-based. Also on record: dose 500-2000 mg/kg, route oral. The conditions noted are these: in vivo, 336 h.
For series [7], the system named is Mus musculus. The experiment in a line: Toxicity in Mus musculus Swiss albino (mouse) assessed as abnormal changes in skin at 500 to 2000 mg/kg, po measured after 14 days. Format: organism-based. Also on record: dose 500-2000 mg/kg, route oral. The conditions noted are these: in vivo, 336 h.
Series [8] deals with Mus musculus. The experiment in a line: Analgesic activity in Mus musculus Swiss albino (mouse) assessed as inhibition of acetic acid-induced writhing at 10 mg/kg, po administered 30 min prior challenge measured after 5 min of challenge for next 30 min relative to control. Format: functional.
Series [9] relates to Rattus norvegicus. Kind of series: Anti-inflammatory activity in Rattus norvegicus Wistar (rat) assessed as inhibition of carrageenan-induced paw edema at 10 mg/kg, po administered 30 min prior to carrageenan challenge measured at 4 hr relative to control. The class given is functional.

Turning to `COc1ccc(/C=C/C(=O)c2ccc(-c3ccccc3)cc2)cc1`, the Activity result in series [1], in [2], in [4], in series [6] and in [7] was “Non-toxic” each time. Also, the inhibition in vivo at 160 mg/kg in series [3] turned out to be 74.8%; in series [5] it was 83.3%.

In the case of `COc1ccc(C(=O)/C=C/c2ccc(N(C)C)cc2)cc1`, the Activity result in series [1], in [2], in series [4], in series [6] and in series [7] was “Non-toxic” in each case. The values for the inhibition in vivo at 160 mg/kg in series [3] and in [5] were 69.8% and 47.9%, respectively.

In the case of `COc1ccc(/C=C/C(=O)c2ccc(OC)cc2)cc1` [4,4'-DIMETHOXYCHALCONE], the Activity result in [1], in series [2], in series [4], in [6] and in [7] was “Non-toxic” in each case. Besides, the inhibition in vivo at 160 mg/kg in series [3] was determined as 72.9%; in series [5], 87.5%.

As to `O=C(/C=C/c1ccc(F)cc1)c1ccc(-c2ccccc2)cc1`, the Activity result in [1], in series [2], in series [4], in series [6] and in series [7] was “Non-toxic” throughout. Moreover, the inhibition in vivo at 160 mg/kg turned out to be 76.8% in series [3] and 56.5% in series [5].

As to `COc1cc(/C=C/C(=O)c2ccc(-c3ccccc3)cc2)cc(OC)c1`, the Activity result in series [1], in [2], in series [4], in [6] and in series [7] was “Non-toxic” throughout. The inhibition in vivo at 160 mg/kg was 63.2% in series [3] and 84.7% in [5].

`O=C(/C=C/c1ccc(O)cc1)c1ccc(-c2ccccc2)cc1`: the Activity result in series [1], in series [2], in series [4], in [6] and in [7] was “Non-toxic” in each case. Also, the inhibition in vivo at 160 mg/kg in [3] is 74.8%; in series [5], 66.7%.

Regarding `COc1ccc(/C=C/C(=O)c2ccc(Br)cc2)cc1`, the Activity result in series [1], in series [2], in series [4], in series [6] and in series [7] was “Non-toxic” throughout. In addition, the inhibition in vivo at 160 mg/kg was 67.7% in series [3] and 70.8% in series [5].

Regarding `COc1ccc(C(=O)/C=C/c2ccccc2)cc1` [4'-METHOXYCHALCONE], the Activity result in series [1], in [2], in [4], in [6] and in [7] was “Non-toxic” in each case. Moreover, the inhibition in vivo at 160 mg/kg in series [3] was 69.8%; in [5], 25.7%.

Regarding `COc1ccc(C(=O)/C=C/c2ccc(Cl)cc2)cc1`, the Activity result in [1], in series [2], in series [4], in [6] and in series [7] was “Non-toxic” throughout. Besides, the inhibition in vivo at 160 mg/kg in series [3] is 77.6%; in [5] it was 48.6%.

Regarding `O=C(/C=C/c1ccc(Cl)cc1)c1ccc(-c2ccccc2)cc1`, the Activity entry in series [1], in [2], in [4], in [6] and in [7] was “Non-toxic” in each case. Moreover, the inhibition in vivo at 160 mg/kg in series [3] is 52.9%; in series [5], 74.3%.

As for `CC(=O)Oc1ccccc1C(=O)O` [ASPIRIN], the inhibition in vivo at 10 mg/kg in series [8] is 88.9%.

With `CN(C)c1ccc(/C=C/C(=O)c2ccc(-c3ccccc3)cc2)cc1`, the Activity entry in series [1], in series [2], in [4], in series [6] and in [7] was “Non-toxic” throughout. Moreover, the inhibition in vivo at 160 mg/kg amounted to 58.7% in series [3] and 72.9% in series [5].

Take `COc1ccc(C(=O)/C=C/c2ccccc2O)cc1`: the Activity result in series [1], in [2], in series [4], in [6] and in series [7] was “Non-toxic” each time. Also, the results for the inhibition in vivo at 160 mg/kg in [3] and in series [5] were 76.1% and 50.7%, respectively.

With `COc1ccc(C(=O)/C=C/c2ccc(O)c(OC)c2)cc1`, the Activity result in series [1], in series [2], in series [4], in series [6] and in series [7] was “Non-toxic” each time. In addition, the values for the inhibition in vivo at 160 mg/kg in series [3] and in series [5] were 80% and 89.6%, respectively.

As for `COc1ccc2c(c1)c(CC(=O)O)c(C)n2C(=O)c1ccc(Cl)cc1` [INDOMETHACIN], the inhibition in vivo at 10 mg/kg in series [9] turned out to be 79.3%.

As for `CN(C)c1ccc(/C=C/C(=O)c2ccc(Br)cc2)cc1`, the Activity entry in series [1], in series [2], in series [4], in [6] and in series [7] was “Non-toxic” throughout. Further, the inhibition in vivo at 160 mg/kg in series [3] worked out at 54.5%; in [5], 31.9%.

With `COc1cc(/C=C/C(=O)c2ccc(-c3ccccc3)cc2)cc(OC)c1OC`, the Activity result in series [1], in [2], in series [4], in [6] and in series [7] was “Non-toxic” each time. Further, the inhibition in vivo at 160 mg/kg in series [3] was 78.7%; in series [5], 85.4%.

On to `O=C(/C=C/c1ccccc1Cl)c1ccc(-c2ccccc2)cc1`, for which the Activity entry in [1], in series [2], in series [4], in [6] and in series [7] was “Non-toxic” each time. Further, the results for the inhibition in vivo at 160 mg/kg in series [3] and in series [5] were 61.9% and 85.1%, respectively.

`O=C(/C=C/c1ccccc1[N+](=O)[O-])c1ccc(-c2ccccc2)cc1`: the Activity entry in [1], in [2], in series [4], in series [6] and in [7] was “Non-toxic” in each case. Also, the inhibition in vivo at 160 mg/kg worked out at 45.2% in [3] and 40.3% in series [5].

Consider `O=C(/C=C/c1ccccc1O)c1ccc(-c2ccccc2)cc1`, for which the Activity entry in [1], in [2], in series [4], in series [6] and in series [7] was “Non-toxic” in each case. The inhibition in vivo at 160 mg/kg in [3] worked out at 80.6%; in series [5] it was 75.7%.

`O=C(/C=C/c1ccoc1)c1ccc(-c2ccccc2)cc1`: the Activity result in series [1], in series [2], in series [4], in series [6] and in series [7] was “Non-toxic” throughout. Moreover, the figures for the inhibition in vivo at 160 mg/kg in series [3] and in series [5] were 52.9% and 51.4%, respectively.

In the case of `O=C(/C=C/c1ccccc1)c1ccc(-c2ccccc2)cc1`, the Activity entry in [1], in series [2], in series [4], in series [6] and in series [7] was “Non-toxic” each time. In addition, the inhibition in vivo at 160 mg/kg in [3] is 68.4%; in [5], 71.5%.

The record behind these values is ChEMBL document CHEMBL3044776, “Microwave-assisted synthesis, pharmacological evaluation, and QSAR studies of 1,3-diaryl-2-propen-1-ones” (Med Chem Res, 2012).
